One data set concerns the target T1, human TLR7 (Homo sapiens, UniProt Q9NYK1).
T1 construct: host or cells: HEK293 (HEK-Blue hTLR7)
T1 sequence (Q9NYK1 27-1049): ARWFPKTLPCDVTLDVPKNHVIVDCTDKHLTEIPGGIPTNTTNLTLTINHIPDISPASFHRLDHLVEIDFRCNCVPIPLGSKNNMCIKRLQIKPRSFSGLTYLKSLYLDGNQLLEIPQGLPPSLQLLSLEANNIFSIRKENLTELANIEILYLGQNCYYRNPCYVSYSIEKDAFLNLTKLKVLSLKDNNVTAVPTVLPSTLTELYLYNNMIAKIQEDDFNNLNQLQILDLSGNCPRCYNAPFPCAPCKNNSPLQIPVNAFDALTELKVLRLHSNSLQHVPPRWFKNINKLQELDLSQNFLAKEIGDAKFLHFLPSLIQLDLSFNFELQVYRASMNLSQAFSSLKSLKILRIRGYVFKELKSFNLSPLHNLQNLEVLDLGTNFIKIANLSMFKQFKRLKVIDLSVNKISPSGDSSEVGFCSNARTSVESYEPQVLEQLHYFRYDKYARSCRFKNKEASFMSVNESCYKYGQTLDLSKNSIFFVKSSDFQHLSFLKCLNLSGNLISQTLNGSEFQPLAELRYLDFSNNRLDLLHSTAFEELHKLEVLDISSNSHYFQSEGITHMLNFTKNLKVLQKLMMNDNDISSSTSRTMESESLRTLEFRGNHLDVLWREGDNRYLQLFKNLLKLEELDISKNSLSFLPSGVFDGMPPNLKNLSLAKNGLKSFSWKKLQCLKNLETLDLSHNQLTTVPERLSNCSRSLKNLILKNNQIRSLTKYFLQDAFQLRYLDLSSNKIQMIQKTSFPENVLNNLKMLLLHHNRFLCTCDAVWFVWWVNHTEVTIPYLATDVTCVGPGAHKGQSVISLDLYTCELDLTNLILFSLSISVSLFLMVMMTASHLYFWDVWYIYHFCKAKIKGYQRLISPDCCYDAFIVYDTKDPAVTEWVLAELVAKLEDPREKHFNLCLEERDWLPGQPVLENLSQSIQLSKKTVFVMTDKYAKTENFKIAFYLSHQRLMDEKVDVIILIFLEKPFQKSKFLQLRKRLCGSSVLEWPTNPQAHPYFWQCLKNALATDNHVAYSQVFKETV
Put plainly: HEK293-Blue-hTLR-7 cells assay (SEAP reporter, R848 stimulation). The following applies: HEK293-Blue-hTLR7 cells, R848 ligand, 20 hrs incubation; read-out: HEK/hTLR7 IC50. The data set is classed as cell-based. From the text: HEK293-Blue-hTLR-7 Cells Assay:
A stable HEK293-Blue-hTLR-7 cell line was purchased from InvivoGen (Cat. #: hkb-htlr7, San Diego, Calif., USA). These cells were originally designed for studying the stimulation of human TLR7 by monitoring the activation of NF-κB. A SEAP (secreted embryonic alkaline phosphatase) reporter gene was placed under the control of the IFN-β minimal promoter fused to five NF-κB and AP-1-binding sites. The SEAP was induced by activating NF-κB and AP-1 via stimulating HEK-Blue hTLR7 cells with TLR7 ligands. Therefore the reporter expression was declined by TLR7 antagonist under the stimulation of a ligand, such as R848 (Resiquimod), for incubation of 20 hrs. The cell culture supernatant SEAP reporter activity was determined using QUANTI-Blue™ kit (Cat. #: rep-qb1, Invivogen, San Diego, Ca, USA) at a wavelength of 640 nm, a detection medium that turns purple or blue in the presence of alkaline phosphatase.
HEK293-Blue-hTLR7 cells were incubated at a density of 250,000-450,000 cells/mL in a volume of 170 μL in a 96-well plate in Dulbecco's Modified Eagle's medium (DMEM) containing 4.5 g/L glucose, 50 U/mL penicillin, […], […], 2 mM L-glutamine, 10% (v/v) heat-inactivated fetal bovine serum with addition of 20 μL test compound in a serial dilution in the presence of final DMSO at 1% and 10 μL of 20 uM R848 in above DMEM, perform incubation under 37° C. in a CO2 incubator for 20 hrs. Then 20 μL of the supernatant from each well was incubated with 180 μL Quanti-blue substrate solution at 37° C. for 2 hrs and the absorbance was read at 620˜655 nm using a spectrophotometer. The signaling pathway that TLR7 activation leads to downstream NF-κB activation has been widely accepted, and therefore similar reporter assay was modified for evaluating TLR7 antagonist.

Data set [1] in a line: Human microsomal stability assay. The note with it: human liver microsomes, 1 μM test compound, 0.5 mg/mL protein, 37° C.; low <7.0, medium 7.0-16.2, high 16.2-23.2. The data set is classed as in vitro ADME. Here is the method: Human Microsomal Stability Assay
Human liver microsomes (Cat. NO.: 452117, Corning, USA) were preincubated with test compound for 10 minutes at 37° C. in 100 mM potassium phosphate buffer, pH 7.4. The reactions were initiated by adding NADPH regenerating system. The final incubation mixtures contained 1 μM test compound, 0.5 mg/mL liver microsomal protein, 1 mM MgCl2, 1 mM NADP, 1 unit/mL isocitric dehydrogenase and 6 mM isocitric acid in 100 mM potassium phosphate buffer, pH 7.4. After incubation times of 0, 3, 6, 9, 15 and 30 minutes at 37° C., 300 μL of cold ACN (including internal standard) was added to 100 μL incubation mixture to terminate the reaction. Following precipitation and centrifugation, 100 uL supernatant will be taken out and added 300 uL water.
The amount of compound remaining in the samples was determined by LC-MS/MS. Controls of no NADPH regenerating system at zero and 30 minutes were also prepared and analyzed. The results were categorized as: low (<7.0 mL/min/kg), medium (7.0-16.2 mL/min/kg) and high (16.2-23.2 mL/min/kg).

SMILES strings stand for the structures.

As to `C[C@@H]1CN(c2cc(=O)n(C)c3ncccc23)C[C@@H]2c3ccc(N4CC(C)(N)C4)cc3CN12` [Example 1, 4-[(4R,10bS)-8-(3-amino-3-methyl-azetidin-1-yl)-4-methyl-3,4,6,10b-tetrahydro-1H-pyrazino[2,1-a]isoindol-2-yl]-1-methyl-1,8-naphthyridin-2-one], the IC50 on human TLR7 was determined as 0.0304 µM. `C[C@@H]1CN(c2cc(=O)n(C)c3ncccc23)C[C@@H]2c3ccc(N4CC5(CN(C)C5)C4)cc3CN12` [Example 2, 4-[(4R,10bS)-4-methyl-8-(6-methyl-2,6-diazaspiro[3.3]heptan-2-yl)-3,4,6,10b-tetrahydro-1H-pyrazino[2,1-a]isoindol-2-yl]-1-methyl-1,8-naphthyridin-2-one]: the IC50 on human TLR7 worked out at 0.0115 µM. In addition, the “CL (h)” value in data set [1] is 0.57 L/h/kg.

Consider `C[C@@H]1CN(c2cc(=O)n(C)c3ncccc23)C[C@@H]2c3ccc(N4CC5(CNCCO5)C4)cc3CN12` [Example 3, 4-[(4R,10bS)-4-methyl-8-(5-oxa-2,8-diazaspiro[3.5]nonan-2-yl)-3,4,6,10b-tetrahydro-1H-pyrazino[2,1-a]isoindol-2-yl]-1-methyl-1,8-naphthyridin-2-one], for which, on human TLR7, the IC50 came out at 0.0211 µM. For the compound `C[C@@H]1CN(c2cc(=O)n(C)c3ncccc23)C[C@@H]2c3ccc(N4CC[C@@](C)(N)C4)cc3CN12` [Example 4, 4-[(4R,10bS)-8-[(3R)-3-amino-3-methyl-pyrrolidin-1-yl]-4-methyl-3,4,6,10b-tetrahydro-1H-pyrazino[2,1-a]isoindol-2-yl]-1-methyl-1,8-naphthyridin-2-one], the IC50 at human TLR7 came out at 0.0395 µM. The “CL (h)” value in data set [1] was determined as 0.378 L/h/kg. With `CO[C@@H]1CN(c2ccc3c(c2)CN2[C@H](C)CN(c4cc(=O)n(C)c5ncccc45)C[C@H]32)C[C@H]1N` [Example 5, 4-[(4R,10bS)-8-[(3R,4R)-3-amino-4-methoxy-pyrrolidin-1-yl]-4-methyl-3,4,6,10b-tetrahydro-1H-pyrazino[2,1-a]isoindol-2-yl]-1-methyl-1,8-naphthyridin-2-one], at human TLR7, the IC50 is 0.0381 µM. The “CL (h)” value in data set [1] stood at 0.468 L/h/kg.

For the compound `C[C@@H]1CN(c2cc(=O)n(C)c3ncccc23)C[C@@H]2c3ccc(N4C[C@H]5NCCO[C@@H]5C4)cc3CN12` [Example 6, 4-[(4R,10bS)-8-[(4aR,7aR)-3,4,4a,5,7,7a-hexahydro-2H-pyrrolo[3,4-b][1,4]oxazin-6-yl]-4-methyl-3,4,6,10b-tetrahydro-1H-pyrazino[2,1-a]isoindol-2-yl]-1-methyl-1,8-naphthyridin-2-one], the IC50 on human TLR7 came to 0.062 µM. As for `C[C@@H]1CN(c2cc(=O)n(C)c3ncccc23)C[C@@H]2c3ccc(N4C[C@@H](N)[C@@H](F)C4)cc3CN12` [Example 7, 4-[(4R,10bS)-8-[(3R,4S)-3-amino-4-fluoro-pyrrolidin-1-yl]-4-methyl-3,4,6,10b-tetrahydro-1H-pyrazino[2,1-a]isoindol-2-yl]-1-methyl-1,8-naphthyridin-2-one], the IC50 on human TLR7 amounted to 0.0437 µM. Further, the “CL (h)” value in data set [1] was found to be 0.564 L/h/kg. As for `CO[C@H]1CN(c2ccc3c(c2)CN2[C@H](C)CN(c4cc(=O)n(C)c5ncccc45)C[C@H]32)CC[C@@H]1N` [Example 8, 4-[(4R,10bS)-8-[(3S,4S)-4-amino-3-methoxy-1-piperidyl]-4-methyl-3,4,6,10b-tetrahydro-1H-pyrazino[2,1-a]isoindol-2-yl]-1-methyl-1,8-naphthyridin-2-one], the IC50 on human TLR7 is 0.0194 µM.

Turning to `CO[C@H]1CCN(c2ccc3c(c2)CN2[C@H](C)CN(c4cc(=O)n(C)c5ncccc45)C[C@H]32)C[C@@H]1N` [Example 9, 4-[(4R,10bS)-8-[(3S,4S)-3-amino-4-methoxy-1-piperidyl]-4-methyl-3,4,6,10b-tetrahydro-1H-pyrazino[2,1-a]isoindol-2-yl]-1-methyl-1,8-naphthyridin-2-one], on human TLR7, the IC50 is 0.0626 µM. Further, in data set [1], the “CL (h)” value was 0.528 L/h/kg. `COC[C@@H]1CNCCN1c1ccc2c(c1)CN1[C@H](C)CN(c3cc(=O)n(C)c4ncccc34)C[C@H]21` [Example 10, 4-[(4R,10bS)-8-[(2S)-2-(methoxymethyl)piperazin-1-yl]-4-methyl-3,4,6,10b-tetrahydro-1H-pyrazino[2,1-a]isoindol-2-yl]-1-methyl-1,8-naphthyridin-2-one]: at human TLR7, the IC50 is 0.0091 µM. `C[C@@H]1CN(c2ccc3c(c2)CN2[C@H](C)CN(c4cc(=O)n(C)c5ncccc45)C[C@H]32)CCN1` [Example 14, 4-[(4R,10bS)-4-methyl-8-[(3R)-3-methylpiperazin-1-yl]-3,4,6,10b-tetrahydro-1H-pyrazino[2,1-a]isoindol-2-yl]-1-methyl-1,8-naphthyridin-2-one]: at human TLR7, the IC50 was found to be 0.0064 µM. For the compound `C[C@@H]1CNCCN1c1ccc2c(c1)CN1[C@H](C)CN(c3cc(=O)n(C)c4ncccc34)C[C@H]21` [Example 17, 4-[(4R,10bS)-4-methyl-8-[(2R)-2-methylpiperazin-1-yl]-3,4,6,10b-tetrahydro-1H-pyrazino[2,1-a]isoindol-2-yl]-1-methyl-1,8-naphthyridin-2-one], on human TLR7, the IC50 was found to be 0.0028 µM. The same measure, in the same setting: then `C[C@@H]1CN(c2cc(=O)n(C)c3ncccc23)C[C@@H]2c3ccc(N4CCOC[C@H](N)C4)cc3CN12` [Example 22, 4-[(4R,10bS)-8-[(6R)-6-amino-1,4-oxazepan-4-yl]-4-methyl-3,4,6,10b-tetrahydro-1H-pyrazino[2,1-a]isoindol-2-yl]-1-methyl-1,8-naphthyridin-2-one], with 0.0358 µM. Same read-out and setting: next, `C[C@@H]1CN(c2cc(=O)n(C)c3ncccc23)C[C@@H]2c3ccc([C@H]4CC[C@@H](N5CCOCC5)CC4)cc3CN12` [Example 27B, 4-[(4R,10bS)-4-methyl-8-(cis-4-morpholinocyclohexyl)-3,4,6,10b-tetrahydro-1H-pyrazino[2,1-a]isoindol-2-yl]-1-methyl-1,8-naphthyridin-2-one]: 0.01 µM; `C[C@@H]1CN(c2cc(=O)n(C)c3ncccc23)C[C@@H]2c3ccc([C@@H]4C[C@H]5COC[C@@H](C4)N5)cc3CN12` [Example 28B, 4-[(4R,10bS)-4-methyl-8-(exo-3-oxa-9-azabicyclo[3.3.1]nonan-7-yl)-3,4,6,10b-tetrahydro-1H-pyrazino[2,1-a]isoindol-2-yl]-1-methyl-1,8-naphthyridin-2-one]: 0.0086 µM.

These data come from patent US20230041743A1, “1,8-NAPHTHYRIDIN-2-ONE COMPOUNDS FOR THE TREATMENT OF AUTOIMMUNE DISEASE” (Hoffmann-La Roche Inc., priority 2019, published 2023).
